Values belong to the molecule of their own block, whether it stands above or below them.
What was measured:
MCF-7 cells [1] = assay: MTT cell viability assay, MCF-7; assay type: cell-based, human; conditions: for IC50: Homo sapiens, MCF7, MCF-7, MTT
Protocol: (§1) The MTT cell viability assay for MCF-7, MDA-MB-231 and MCF 10A cells were conducted according to a previously reported protocol. MCF-7, MDA-MB-231, and MCF-10A were seeded in a 96-well plate at a concentration of 0.8 × 10^5 cells/mL and left overnight in a CO2 incubator set at 37 °C. Then, BHMC with 2-fold dilution ranging between 180 and 3 µM was added to the respective cell lines while the last row of the 96-well plate served as untreated control cells. After 24, 48, and 72 h of incubation, 20 µL of 5 mg/mL MTT solution was added to all wells and the plate was further incubated for three hours. Then, 180 µL of supernatant was carefully discarded and added with 100 µL of DMSO to solubilize the purple crystals. Optical density was measured at 570 nm wavelength using ELISA Reader (Bio-tek Instrument, Winooski, Vermont, USA). The percentage of cell viability was calculated following deduction of the blank cell absorbance using the formula (Equation (1)):(1) Cell viability % =Absorbance of treated cells/Absorbance of untreated control× 100%
(§2) The dose–response curve was plotted, and the concentration that yields 50% inhibition of cell growth (IC50) was obtained as a parameter for cytotoxicity. Starting from this point, BHMC with IC50 value was used throughout the study to induce cell death. On the other hand, selectivity index (SI) was obtained by using the following formula (Equation (2)):(2) Selectivity index SI =IC50 of MCF−10A/IC50 of MCF−7 or MDA−MB−231

MDA-MB-231 cells = assay: MTT cell viability assay, MDA-MB-231; assay type: cell-based, human; conditions: for IC50: Homo sapiens, MDA-MB-231, MTT
Protocol: as §1, §2

MCF-10A cells = assay: MTT cell viability assay, MCF-10A; assay type: cell-based; conditions: Homo sapiens
Protocol: as §1, §2

MCF-7 cells [2] = assay: Flow cytometry cell cycle analysis; assay type: cell-based, human; conditions: MCF-7, BHMC at IC50 (8.2 µM in figure; 12.50 µM in methods)
Protocol: (§3) MCF-7 cells were seeded at 0.8 × 10^5 cells/mL in a 6-well plate and left overnight in a CO2 incubator set at 37 °C. […] Untreated control was prepared simultaneously. After 24, 48, or 72 h of incubation, the cell was harvested using TrypLE (Gibco Thermo Fisher Scientific, Waltham, MA, USA), washed with phosphate buffer saline (PBS), and subjected to the following assays. All assays were tested with three biological replicates.
Cell cycle progression of control and BHMC-treated MCF-7 cells was evaluated by staining with BD Cycletest Plus kit (Becton Dickinson, Franklin Lakes, NJ, USA) and subjected to BD FACS Calibur flow cytometer (Becton Dickinson, USA) analysis. In brief, harvested cells were incubated with 250 µL of trypsin buffer for 10 min followed by addition of 200 µL of trypsin inhibitor containing RNase buffer. After 10 min of incubation, the samples were finally stained with 200 µL of PI solution. Flow cytometer analysis was carried out after 10 min of incubation with the PI stain solution. A minimum of 10,000 cells in the population was captured. Three independent experiments were repeated with similar parameter.

MCF-7 cells [3] = assay: Flow cytometry Annexin V apoptosis detection; assay type: cell-based, human; conditions: MCF-7, Annexin V/7ADD
Protocol: as §3
Cell apoptosis assay was conducted based on a study method with some changes. […] In brief, harvested cells were washed and re-suspended in 100 µL of PBS. […] Approximately, 10,000 cells in the population were captured. The experiment was qualitatively repeated for three times.

MCF-7 cells [4] = assay: miRNA microarray analysis; assay type: cell-based, human
Protocol: (§4) Total RNAs including small RNAs were isolated from MCF-7 treated with BHMC using miRNeasy kit (Qiagen, Hilden, Germany) according to manufacturer’s instructions. The quality of extracted RNA was assessed by the NanoDrop-1000 Spectrophotometer (NanoDrop Technologies Inc., Wilmington, DE, USA) and Agilent 2100 Bioanalyzer, and samples with A260/A280 ratio between 1.8 to 2.1 and an RIN value of 8 and above was used for further analysis.
Total RNA (8 µL) of control and BHMC-treated MCF-7 cells was directly labelled using Flash Tag Biotin HSR Labeling kits (Affymetrix, Santa Clara, CA, USA) in accordance with the instructions of the manufacturer. RNA was heated to 80 °C for 10 min before labeling to inactivate any residual DNase activity. RNA was hybridized for 42 h to the GeneChip miRNA 2.0 array (Affymetrix, Santa Clara, CA, USA). The GeneChip miRNA 2.0 arrays contain 100% miRBase version 15 coverage of 131 organisms and contain probes for 3439 humans non-coding RNAs (ncRNAs), including 1105 miRNAs and 2334 other ncRNAs (including scaRNAs and snoRNAs). Washing and staining were automatically performed using the Affymetrix Fluidics Station 450 (Affymetrix, Santa Clara, CA, USA), and probe intensities were measured using the GeneChip® Scanner (Affymetrix, Santa Clara, CA, USA).
Data discussed in this publication have been deposited in the NCBI Gene Expression Omnibus and are accessible through the GEO Series accession number GSE155467. Using the gene expression workflow in Partek Genomics Suite software (Cat 4462922G, Partek Inc., St. Louis, MO, USA), the CEL files generated by the Affymetrix data file were converted into .nFMT files. […] Differentially expressed miRNAs (>5-fold change, p < 0.05) were identified using analysis of variance (ANOVA) analysis.

MCF-7 cells [5] = assay: Real-time quantitative PCR of miRNAs expression; assay type: cell-based, human; conditions: qPCR, BHMC-treated vs untreated MCF-7
Protocol: as §4
One microgram (μg) of total RNA was used in reverse transcription and the process was conducted using the miScript II RT Kit (Qiagen/SABiosciences, Hilden, Germany) according to the manufacturer protocol. Quantitative RT-PCR was carried out using CFX96 (BioRad, Hercules, CA, USA). […] The miRNA-specific primers for miR-3195, miR-30a, miR-6813-5p, and miR-6132 were designed by miRprimer and commercially synthesized as listed in Table 3. The expression of putative miRNAs was evaluated using geNorm algorithms. PCR reactions were performed in triplicate for each sample. The relative amounts of miRNAs were normalized against reference miRNAs and the fold change for each miRNA was calculated by the 2^−ΔΔCt method.

MCF-7 cells [6] = assay: Real-time quantitative PCR of mRNA expression (SNAIL, VEGF); assay type: cell-based, human; conditions: qPCR, BHMC-treated vs untreated MCF-7
Protocol: as §4
Real-time quantitative PCR was performed on SNAIL and VEGF, which were the target of miR-30a and miR-3195 [31]. One microgram (μg) of total RNA was reverse transcripted using the QuantiTect Reverse Transcription Kit (Qiagen, USA) according to the manufacturer protocol. Primers were designed using Primer-Blast (Table 2) and synthesized commercially. NEXpro qPCR Evagreen Master Mix (NEX Diagnostics, Gyeonggi-do, Korea) was used to perform the mRNA qPCR based on the manufacturer protocol. The qPCR system CFX96 (BioRad, USA) was used and the qPCR conditions were: 50 °C for 2 min, 95 °C for 10 min, and 40 cycles of 95 °C for 15 s, and 60 °C for 1 min. A final melting curve was performed to ensure that only one amplicon was present. The relative amounts of mRNAs were normalized against reference gene beta-actin (ACTB) as described previously and the fold change for each mRNA was calculated by the 2^−ΔΔCt method.

MCF-7 cells [7] = assay: Light and fluorescent (AO/PI) microscopic observation; assay type: cell-based, human; conditions: MCF-7, 8.2 µM of BHMC, 48 h
Protocol: as §3
Morphology of control and BHMC-treated MCF-7 cells was observed under light microscope (Nikon, Minato City, Japan). For fluorescent microscope observation, control and BHMC-treated MCF-7 cells (2 × 10^5 cells) were stained with 10 μL of 100 μg/mL acridine orange (AO) and 100 μg/mL propidium iodide (PI) for 10 min. After that, the cells were washed and examined under fluorescent microscope (Nikon FC-35DX, Minato City, Japan) using an excitation filter and barrier filter at 450–490 nm and long pass filter of 520 nm.

[8] = IC50 of MCF-10A / IC50 of MCF-7, 24 h
[9] = IC50 of MCF-10A / IC50 of MCF-7, 48 h
[10] = IC50 of MCF-10A / IC50 of MCF-7, 72 h
[11] = IC50 of MCF-10A / IC50 of MDA-MB-231, 24 h
[12] = IC50 of MCF-10A / IC50 of MDA-MB-231, 48 h
[13] = IC50 of MCF-10A / IC50 of MDA-MB-231, 72 h

IC50 (MCF-7 cells [1]; 24 h): 55.7 ± 2.77 µM
IC50 (MCF-7 cells [1]; 48 h): 45.1 ± 2.12 µM
IC50 (MCF-7 cells [1]; 72 h): 39.8 ± 1.51 µM
IC50 (MDA-MB-231 cells; 24 h): 32 ± 2.81 µM
IC50 (MDA-MB-231 cells; 48 h): 26 ± 2.33 µM
IC50 (MDA-MB-231 cells; 72 h): 23 ± 2.15 µM
SMILES: COc1cc(/C=C/C(=O)CC(=O)/C=C/c2ccc(O)c(OC)c2)ccc1O [Curcumin, reference compound]
SI MCF10A/MCF7 (MCF-7 cells [1]; [8]): 3.37
SI MCF10A/MCF7 (MCF-7 cells [1]; [9]): 2.48
SI MCF10A/MCF7 (MCF-7 cells [1]; [10]): 2.51
SI MCF10A/MDA-MB-231 (MDA-MB-231 cells; [11]): 5.88
SI MCF10A/MDA-MB-231 (MDA-MB-231 cells; [12]): 4.31
SI MCF10A/MDA-MB-231 (MDA-MB-231 cells; [13]): 4.35
IC50 (MCF-10A cells; 24 h): 188 ± 4.52 µM
IC50 (MCF-10A cells; 48 h): 112 ± 4.57 µM
IC50 (MCF-10A cells; 72 h): 100 ± 4.31 µM

IC50 (MCF-7 cells [1]; 24 h): 23.5 ± 2.41 µM
IC50 (MCF-7 cells [1]; 48 h): 12.5 ± 1.87 µM
IC50 (MCF-7 cells [1]; 72 h): 11 ± 1.33 µM
IC50 (MDA-MB-231 cells; 24 h): 29.4 ± 3.15 µM
IC50 (MDA-MB-231 cells; 48 h): 20.1 ± 1.94 µM
IC50 (MDA-MB-231 cells; 72 h): 19.7 ± 3.14 µM
SMILES: COc1cc(/C=C2\CCC/C(=C\c3ccc(O)c(OC)c3)C2=O)ccc1O [BHMC, (2E,6E)-2,6-bis-(4-hydroxy-3-methoxybenzylidene)-cyclohexanone]
SI MCF10A/MCF7 (MCF-7 cells [1]; [8]): 7.66
SI MCF10A/MCF7 (MCF-7 cells [1]; [9]): 8.64
SI MCF10A/MCF7 (MCF-7 cells [1]; [10]): 8.96
selectivity index (SI) MCF-7 against MCF-10A (MCF-7 cells [1]; summary over 24, 48 and 72 h): > 7
SI MCF10A/MDA-MB-231 (MDA-MB-231 cells; [11]): 6.14
SI MCF10A/MDA-MB-231 (MDA-MB-231 cells; [12]): 5.38
SI MCF10A/MDA-MB-231 (MDA-MB-231 cells; [13]): 5.00
selectivity index (SI) MDA-MB-231 against MCF-10A (MDA-MB-231 cells; summary over 24, 48 and 72 h): > 5
IC50 (MCF-10A cells; 24 h): 180 ± 3.11 µM
IC50 (MCF-10A cells; 48 h): 108 ± 2.15 µM
IC50 (MCF-10A cells; 72 h): 98.4 ± 3.22 µM
percentage of cells at G2/M phase (MCF-7 cells [2]; 24 h): 24.26%
percentage of cells at Sub G0/G1 phase (MCF-7 cells [2]; 24 h): 6.64%
percentage of cells at Sub G0/G1 phase (MCF-7 cells [2]; 72 h): 22.80%
Early apoptotic cells (MCF-7 cells [3]; BHMC at IC50, 24 h): 10.34%
Late apoptotic/necrotic cells (MCF-7 cells [3]; BHMC at IC50, 24 h): 8.81%
Early apoptotic cells (MCF-7 cells [3]; BHMC at IC50, 72 h): 43.44%
Late apoptotic/necrotic cells (MCF-7 cells [3]; BHMC at IC50, 72 h): 38.22%
downregulation of miR-6813-5p, miR-6132, miR-4725-3p, miR-1587, miR-6779-5p (MCF-7 cells [4]; BHMC-treated MCF-7): at least 30 folds
upregulation of top five overexpressed miRNAs (miR-184, miR-3195, miR-149-5p, miR-30a-3p, miR532-3p) (MCF-7 cells [4]; BHMC-treated MCF-7): at least 10 folds
hsa-miR-30a-3p Upregulated Fold Change (MCF-7 cells [4]; BHMC-treated vs control MCF-7): 12.9
hsa-miR-149-5p Upregulated Fold Change (MCF-7 cells [4]; BHMC-treated vs control MCF-7): 13.06
hsa-miR-184 Upregulated Fold Change (MCF-7 cells [4]; BHMC-treated vs control MCF-7): 17.58
hsa-miR-532-3p Upregulated Fold Change (MCF-7 cells [4]; BHMC-treated vs control MCF-7): 11.73
hsa-miR-1587 Downregulated Fold Change (MCF-7 cells [4]; BHMC-treated vs control MCF-7): −35.89
hsa-miR-3195 Upregulated Fold Change (MCF-7 cells [4]; BHMC-treated vs control MCF-7): 16.21
hsa-miR-4725-3p Downregulated Fold Change (MCF-7 cells [4]; BHMC-treated vs control MCF-7): −41.51
hsa-miR-6132 Downregulated Fold Change (MCF-7 cells [4]; BHMC-treated vs control MCF-7): −61.96
hsa-miR-6779-5p Downregulated Fold Change (MCF-7 cells [4]; BHMC-treated vs control MCF-7): −33.07
hsa-miR-6813-5p Downregulated Fold Change (MCF-7 cells [4]; BHMC-treated vs control MCF-7): −71.82
miR-30a-3p expression increment (MCF-7 cells [5]): at least 5 fold
miR-3195 expression increment (MCF-7 cells [5]): at least 5 fold
miR-6132 downregulation (MCF-7 cells [5]): at least 10 folds
miR-6813-5p downregulation (MCF-7 cells [5]): at least 10 folds
SNAIL mRNA expression (MCF-7 cells [6]): downregulated
VEGF mRNA expression (MCF-7 cells [6]): downregulated
morphological changes, light microscope (MCF-7 cells [7]): reduced the MCF-7 cells number and severely distorted the MCF-7 cells shape
morphology, acridine orange and propidium iodide fluorescent microscopy (MCF-7 cells [7]): presented the morphological characteristics of apoptotic cells

Reference: publication PMC7956517, “Induction of Apoptosis and Regulation of MicroRNA Expression by (2E,6E)-2,6-bis-(4-hydroxy-3-methoxybenzylidene)-cyclohexanone (BHMC) Treatment on MCF-7 Breast Cancer Cells” (Molecules, 2021)
